Test results taken from US20230114728A1 (Venatorx Pharmaceuticals, Inc., priority 2019, published 2023).

Experiments:
[1] = molecular target: T1, A. baumannii PBP2 (Acinetobacter baumannii, UniProt D0C8Z9); test: Bocillin-FL fluorescence polarization competition binding assay, A. baumannii PBP2; conditions: fluorescence polarization competition binding assay using Bocillin-FL; read-out: A. baumannii PBP2 Potency
T1 construct: made in house
T1 sequence (D0C8Z9 1-672): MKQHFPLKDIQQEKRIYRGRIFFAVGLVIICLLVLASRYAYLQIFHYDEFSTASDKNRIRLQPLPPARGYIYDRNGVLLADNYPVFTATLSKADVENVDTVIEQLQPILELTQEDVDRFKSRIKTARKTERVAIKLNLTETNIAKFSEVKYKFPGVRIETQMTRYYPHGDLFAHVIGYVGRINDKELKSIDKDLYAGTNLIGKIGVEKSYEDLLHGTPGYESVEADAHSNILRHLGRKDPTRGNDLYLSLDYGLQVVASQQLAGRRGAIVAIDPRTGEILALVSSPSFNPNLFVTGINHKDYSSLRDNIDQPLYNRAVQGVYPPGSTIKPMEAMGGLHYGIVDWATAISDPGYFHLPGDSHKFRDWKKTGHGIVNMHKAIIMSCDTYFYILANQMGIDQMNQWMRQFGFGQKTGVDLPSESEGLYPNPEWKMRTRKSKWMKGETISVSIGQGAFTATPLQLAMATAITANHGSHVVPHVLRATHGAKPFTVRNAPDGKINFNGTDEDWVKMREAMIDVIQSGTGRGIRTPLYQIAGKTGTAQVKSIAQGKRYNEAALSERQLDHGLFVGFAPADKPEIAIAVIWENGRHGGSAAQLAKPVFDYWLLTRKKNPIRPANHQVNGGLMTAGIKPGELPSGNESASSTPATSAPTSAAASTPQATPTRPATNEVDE
Text: (§1) Example I: Experimental Method for Penicillin-Binding Protein Binding Assays with Bocillin-FL Via Fluorescence Polarization
(§2) To determine the ability of boronic acid-based test PBP inhibitors to bind Penicillin Binding Proteins (PBPs), Bocillin-FL (fluorescently-labeled penicillin V; ThermoFisher Scientific) was used in a fluorescence polarization (FP) competition binding assay to assess inhibitor binding to PBP2, PBP3 or PBP4 from Escherichia coli (K12), PBP3 from Pseudomonas aeruginosa (PA01), PBP1a, PBP2 and PBP3 from Acinetobacter baumannii (ATCC 19606), and PBP2 from Neiserria gonorrheae (FA19). PBPs were cloned and purified as described previously (E. coli PBPs, King, D. T, et al., ACS Infectious Diseases 2015, 1, 175-184; P. aeruginosa PBP3, Han et. al., PNAS 2010, 107 (51), 22002-22007; A. baumannii PBPs, Penwell et. al., Antimicrob. Agents Chemother. 2015, 59 (3), 1680-1689; N. gonorrhoeae PBP2, Singh et. al., J Biol. Chem. 2019, 294 (38), 14020-14032). To establish assay conditions for competition binding, enzyme titration/saturation binding experiments were initially performed. Bocillin-FL was prepared at 0.2 μM in a buffer comprised of 50 mM Hepes (pH 8.0), 300 mM NaCl and 5% (v/v) glycerol for reactions with E. coli, P. aeruginosa and N. gonorrhoeae PBPs, and 25 mM Tris (pH 8.0), 200 mM NaCl and 10% (v/v) glycerol and 0.005% (v/v) Tween 20 for reactions with A. baumannii PBPs. Saturation binding was performed by mixing 40 μl of PBP solutions ranging in concentrations from 0-24 μM with 40 μl of the 0.2 μM Bocillin-FL solution, in individual wells of a black 384-well microplate. FP was measured immediately upon mixing (Excitation, 490 nm; Emission, 520 nm; g-factor, 0.96), using a Cytation3 (BioTek) microplate reader and measured continuously for up to 120 minutes. […] The competition binding assay (80 μl final volume) was validated using beta-lactams and PBPs at final concentrations of: 1.5 μM, E. coli PBP3; 0.75 μM, P. aeruginosa PBP3; 1 μM A. baumannii PBP1a; 2.5 μM A. baumannii PBP2; 0.2 μM A. baumannii PBP3; and […] N. gonorrhoeae PBP2. Bocillin-FL was at 0.1 μM (0.05 μM with A. baumannii PBP1a) and beta-lactam concentrations ranged from 0-1000 μM. […] Bocillin-FL was added and the FP immediately measured for up to 60 minutes (90 minutes for E. coli PBP2). […] The beta-lactam potency was reported as the concentration of beta-lactam required to reduce the amount of PBP bound-Bocillin-FL by 50% (EC50). […] Binding assays for boronic acid PBP inhibitors were performed in an identical fashion for the respective PBPs

[2] = molecular target: A. baumannii PBP1a (Acinetobacter baumannii, UniProt A0ABX6CK30); test: Bocillin-FL fluorescence polarization competition binding assay, A. baumannii PBP1a; conditions: fluorescence polarization competition binding assay using Bocillin-FL; column 1; read-out: A. baumannii PBP1a Potency
Text: as §1, §2

[3] = molecular target: T2, N. gonorrhoeae PBP2 (Neisseria gonorrhoeae, UniProt P08149); test: Bocillin-FL fluorescence polarization competition binding assay, N. gonorrhoeae PBP2; conditions: fluorescence polarization competition binding assay using Bocillin-FL; read-out: N. gonorrhoeae PBP2 Potency
T2 construct: made in house
Text: as §1, §2

T2 sequence (P08149 whole entry): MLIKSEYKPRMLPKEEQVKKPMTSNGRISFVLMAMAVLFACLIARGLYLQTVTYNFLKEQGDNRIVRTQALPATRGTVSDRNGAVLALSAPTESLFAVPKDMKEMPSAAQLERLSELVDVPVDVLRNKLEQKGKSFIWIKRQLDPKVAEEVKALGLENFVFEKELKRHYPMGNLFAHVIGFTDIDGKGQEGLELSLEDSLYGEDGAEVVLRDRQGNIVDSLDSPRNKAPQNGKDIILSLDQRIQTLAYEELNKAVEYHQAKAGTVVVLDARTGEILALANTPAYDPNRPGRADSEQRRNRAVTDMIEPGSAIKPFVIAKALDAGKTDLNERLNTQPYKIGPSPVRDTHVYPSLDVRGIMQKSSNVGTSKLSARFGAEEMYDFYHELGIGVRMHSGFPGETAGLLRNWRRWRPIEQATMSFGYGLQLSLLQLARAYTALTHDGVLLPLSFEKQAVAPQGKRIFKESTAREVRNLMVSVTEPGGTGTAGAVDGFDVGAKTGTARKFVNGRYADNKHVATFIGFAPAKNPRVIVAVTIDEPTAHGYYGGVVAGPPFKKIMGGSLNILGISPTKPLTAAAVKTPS
A. baumannii PBP1a, sequence (A0ABX6CK30 entry or part of it): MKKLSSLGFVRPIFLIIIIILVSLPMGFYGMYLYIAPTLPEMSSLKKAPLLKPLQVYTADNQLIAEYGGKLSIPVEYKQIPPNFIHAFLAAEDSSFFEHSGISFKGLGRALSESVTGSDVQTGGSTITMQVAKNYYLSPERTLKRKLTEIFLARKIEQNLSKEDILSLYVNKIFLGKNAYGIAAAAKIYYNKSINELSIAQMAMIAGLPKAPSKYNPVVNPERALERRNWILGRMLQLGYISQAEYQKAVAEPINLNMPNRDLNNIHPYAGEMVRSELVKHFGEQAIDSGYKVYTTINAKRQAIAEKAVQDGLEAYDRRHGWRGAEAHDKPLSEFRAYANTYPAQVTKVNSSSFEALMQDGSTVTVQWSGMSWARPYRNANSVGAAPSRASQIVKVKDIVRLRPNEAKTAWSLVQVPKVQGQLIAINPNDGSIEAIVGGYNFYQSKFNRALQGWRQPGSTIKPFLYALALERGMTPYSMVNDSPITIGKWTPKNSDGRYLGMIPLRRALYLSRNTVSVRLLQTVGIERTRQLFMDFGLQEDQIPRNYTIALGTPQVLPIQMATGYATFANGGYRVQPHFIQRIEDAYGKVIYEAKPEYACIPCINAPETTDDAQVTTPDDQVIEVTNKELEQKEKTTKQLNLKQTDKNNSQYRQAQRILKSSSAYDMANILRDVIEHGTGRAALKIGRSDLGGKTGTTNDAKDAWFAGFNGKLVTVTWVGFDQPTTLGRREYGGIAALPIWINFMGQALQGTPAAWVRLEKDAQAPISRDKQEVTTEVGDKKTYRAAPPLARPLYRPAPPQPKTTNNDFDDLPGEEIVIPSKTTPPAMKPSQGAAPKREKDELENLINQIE

Row | Structure (SMILES) | EC50 [1] | EC50 [2] | EC50 [3]
1 | NCCN1CCN(C(=O)N[C@@H](C(=O)N[C@H]2Cc3ccc(F)c(C(=O)O)c3OB2O)c2c(F)cc(O)c(O)c2Cl)C(=O)C1=O (single isomer, unassigned) [Example 26] | > 100 µM | > 100 µM | –
2 | NCCCN1CCN(C(=O)N[C@@H](C(=O)N[C@H]2Cc3ccc(F)c(C(=O)O)c3OB2O)c2c(F)cc(O)c(O)c2Cl)C(=O)C1=O (single isomer, unassigned) [Example 27] | > 100 µM | > 100 µM | –
3 | O=C(O)c1c(F)ccc2c1OB(O)[C@@H](NC(=O)[C@H](NC(=O)N1CCNC1=O)c1c(F)cc(O)c(O)c1Cl)C2 (single isomer, unassigned) [Example 34] | 30 to 100 µM | > 100 µM | –
4 | NCCN1CCN(C(=O)N[C@@H](C(=O)N[C@H]2Cc3ccc(F)c(C(=O)O)c3OB2O)c2c(F)cc(O)c(O)c2F)C(=O)C1=O (single isomer, unassigned) [Example 40] | 30 to 100 µM | > 100 µM | –
5 | CCN1CCN(C(=O)N[C@@H](C(=O)N[C@H]2Cc3cccc(C(=O)O)c3OB2O)c2cc(O)cc(O)c2)C(=O)C1=O (single isomer, unassigned) [Example 82] | – | – | < 10 µM
6 | NCCN1CCN(C(=O)N[C@H](C(=O)N[C@H]2Cc3cccc(C(=O)O)c3OB2O)c2ccc(C(=O)O)cc2)C(=O)C1=O (single isomer, unassigned) [Example 83] | – | – | < 10 µM
7 | NCCN1CCN(C(=O)N[C@@H](C(=O)N[C@H]2Cc3cccc(C(=O)O)c3OB2O)c2ccc(C(=O)O)cc2)C(=O)C1=O (single isomer, unassigned) [Example 84] | – | – | < 10 µM
8 | NCCN1CCN(C(=O)N[C@H](C(=O)N[C@H]2Cc3cccc(C(=O)O)c3OB2O)c2ccc(O)cc2Cl)C(=O)C1=O (single isomer, unassigned) [Example 85] | – | – | 10 to 30 µM
9 | CCN1CCN(C(=O)N[C@@H](C(=O)N[C@H]2Cc3cccc(C(=O)O)c3OB2O)c2cc(Cl)c(O)cc2Cl)C(=O)C1=O (single isomer, unassigned) [Example 91] | – | – | < 10 µM
10 | CCN1CCN(C(=O)N[C@H](C(=O)N[C@H]2Cc3cccc(C(=O)O)c3OB2O)c2cc(Cl)c(O)cc2Cl)C(=O)C1=O (single isomer, unassigned) [Example 92] | – | – | < 10 µM
11 | CS(=O)(=O)N1CCN(C(=O)NC(C(=O)N[C@H]2Cc3ccc(F)c(C(=O)O)c3OB2O)c2ccc(O)c(O)c2Cl)C1=O (stereo partly drawn) [Example 23, (3R)-3-(2-(2-chloro-3,4-dihydroxyphenyl)-2-(3-(methylsulfonyl)-2-oxoimidazolidine-1-carboxamido)acetamido)-7-fluoro-2-hydroxy-3,4-dihydro-2H-benzo[e][1,2]oxaborinine-8-carboxylic acid] | > 100 µM | > 100 µM | –
12 | CCN1CCN(C(=O)NC(C(=O)N[C@H]2Cc3cccc(C(=O)O)c3OB2O)c2ccc(C(=O)O)c(F)c2)C(=O)C1=O (stereo partly drawn) [Example 31, (3R)-3-(2-(4-carboxy-3-fluorophenyl)-2-(4-ethyl-2,3-dioxopiperazine-1-carboxamido)acetamido)-2-hydroxy-3,4-dihydro-2H-benzo[e][1,2]oxaborinine-8-carboxylic acid] | – | – | < 10 µM
13 | CCN1CCN(C(=O)NC(C(=O)N[C@H]2Cc3cccc(C(=O)O)c3OB2O)c2ccc(C(N)=O)c(O)c2)C(=O)C1=O (stereo partly drawn) [Example 45, (3R)-3-(2-(4-carbamoyl-3-hydroxyphenyl)-2-(4-ethyl-2,3-dioxopiperazine-1-carboxamido)acetamido)-2-hydroxy-3,4-dihydro-2H-benzo[e][1,2]oxaborinine-8-carboxylic acid] | – | – | < 10 µM
14 | CCN1CCN(C(=O)NC(C(=O)N[C@H]2Cc3cccc(C(=O)O)c3OB2O)c2cccc(O)c2)C(=O)C1=O (stereo partly drawn) [Example 68, (3R)-3-(2-(4-ethyl-2,3-dioxopiperazine-1-carboxamido)-2-(3-hydroxyphenyl)acetamido)-2-hydroxy-3,4-dihydro-2H-benzo[e][1,2]oxaborinine-8-carboxylic acid] | – | – | < 10 µM
15 | CCN1CCN(C(=O)NC(C(=O)N[C@H]2Cc3cccc(C(=O)O)c3OB2O)c2cccc(N)c2)C(=O)C1=O (stereo partly drawn) [Example 72, (3R)-3-(2-(3-aminophenyl)-2-(4-ethyl-2,3-dioxopiperazine-1-carboxamido)acetamido)-2-hydroxy-3,4-dihydro-2H-benzo[e][1,2]oxaborinine-8-carboxylic acid] | – | – | < 10 µM
16 | CCN1CCN(C(=O)NC(C(=O)N[C@H]2Cc3cccc(C(=O)O)c3OB2O)c2ccc(O)c(NC(=O)c3ccc(O)c(O)c3Cl)c2)C(=O)C1=O (stereo partly drawn) [Example 74, (3R)-3-(2-(3-(2-chloro-3,4-dihydroxybenzamido)-4-hydroxyphenyl)-2-(4-ethyl-2,3-dioxopiperazine-1-carboxamido)acetamido)-2-hydroxy-3,4-dihydro-2H-benzo[e][1,2]oxaborinine-8-carboxylic acid] | > 100 µM | 30 to 100 µM | –
17 | NCCN1CCN(C(=O)NC(C(=O)N[C@H]2Cc3cccc(C(=O)O)c3OB2O)c2c(F)cc(O)cc2Cl)C(=O)C1=O (stereo partly drawn) [Example 94, (3R)-3-(2-(4-(2-aminoethyl)-2,3-dioxopiperazine-1-carboxamido)-2-(2-chloro-6-fluoro-4-hydroxyphenyl)acetamido)-2-hydroxy-3,4-dihydro-2H-benzo[e][1,2]oxaborinine-8-carboxylic acid] | – | – | < 10 µM
18 | CCN1CCN(C(=O)NC(C(=O)N[C@H]2Cc3cccc(C(=O)O)c3OB2O)c2c(F)cc(O)cc2Cl)C(=O)C1=O (stereo partly drawn) [Example 95, (3R)-3-(2-(2-chloro-6-fluoro-4-hydroxyphenyl)-2-(4-ethyl-2,3-dioxopiperazine-1-carboxamido)acetamido)-2-hydroxy-3,4-dihydro-2H-benzo[e][1,2]oxaborinine-8-carboxylic acid] | – | – | < 10 µM
